Values after ≈ are worked out from the molar mass of the structure shown.
Columns and labels:
[1] = test system: MRSA(SA11I4); assay type: cell-based, Staphylococcus aureus
Procedure: (§1) Susceptibility to teixobactin and its analogues was tested on the selected Gram-positive strains using Tecan Freedom EVO high-throughput automated platform, following the standard broth dilution method as described by the Clinical and Laboratory Standards Institute ^3. MICS were determined according to CLSI guideline.

[2] = test system: SA (ATCC29213); assay type: cell-based, Staphylococcus aureus
Procedure: as §1

[3] = test system: MRSA and SA strains; assay: MIC, summary over S. aureus strains; assay type: cell-based, Staphylococcus aureus; settings: MRSA clinical isolate and MSSA ATCC29213; from MICs
Procedure: as §1

[4] = test system: Staphylococcus aureus strain ATCC43300; assay: Wax worm survival model infected with S. aureus; assay type: in vivo, Galleria mellonella
Excerpt: FIG. 2. In vivo antibacterial activities of certain antibiotics of the invention. Efficacy of teixobactin and certain antibiotics of the invention for treating infections caused by Staphylococcus aureus strain ATCC43300 was studied in wax worm larvae (Galleria mellonella) model. PBS, control group without infection and treated with PBS: All other groups (20 each group) were infected with 10^7 CFU of S. aureus strain ATCC43300 followed by no treatment or treatment with one dose of vancomycin at 10 mg/kg (A-10) or 50 mg/kg (A-50), teixobactin at 10 mg/kg (B-10) or 50 mg/kg (B-50), or one dose of the representative analogue, Chg10-teixobactin, at 10 mg/kg (C-10) or 50 mg/kg (C-50).
Exemplary in vivo antibacterial activity: Chg10-Teixobactin was studied in wax worm survival models infected with S. aureus strain ATCC43300. Teixobactin were used as controls. […] At a dose of 50 mg/kg, Chg10-Teixobactin protected 100% infected wax worms (See FIG. 2).

Structure (SMILES) | Minimum inhibitory concentration (MIC) MRSA(SA11I4) [1] | Minimum inhibitory concentration (MIC) SA (ATCC29213) [2] | Antibacterial activity compared with teixobactin [3] | Infected wax worms protected ([4]; one dose of 50 mg/kg, wax worms infected with S. aureus ATCC43300) | In vivo antibacterial activities, teixobactin as control ([4]; one dose treatment, wax worm survival model, S. aureus ATCC43300)
CC[C@@H](C)[C@@H](NC(=O)[C@@H](CCC(N)=O)NC(=O)[C@H](CO)NC(=O)[C@@H](NC(=O)[C@@H](Cc1ccccc1)NC)[C@@H](C)CC)C(=O)N[C@H](C(=O)N[C@@H](CO)C(=O)N[C@H]1C(=O)N[C@@H](C)C(=O)N[C@@H](CC2CCCCC2)C(=O)N[C@@H]([C@@H](C)CC)C(=O)O[C@H]1C)[C@@H](C)CC [Cha10-teixobactin] | 2 µg/mL (≈ 1.61 µM) | 0.5 µg/mL (≈ 0.403 µM) | comparable activities as teixobactin |  | 
CC[C@@H](C)[C@@H](NC(=O)[C@@H](CCC(N)=O)NC(=O)[C@H](CO)NC(=O)[C@@H](NC(=O)[C@@H](Cc1ccccc1)NC)[C@@H](C)CC)C(=O)N[C@H](C(=O)N[C@@H](CO)C(=O)N[C@H]1C(=O)N[C@@H](C)C(=O)N[C@@H](C2CCCCC2)C(=O)N[C@@H]([C@@H](C)CC)C(=O)O[C@H]1C)[C@@H](C)CC [Chg10-teixobactin] | 1 µg/mL (≈ 0.815 µM) | 0.25 µg/mL (≈ 0.204 µM) | two times higher activities than teixobactin | 100% | improved antibacterial activities
CC[C@@H](C)[C@@H](NC(=O)[C@@H](CCC(N)=O)NC(=O)[C@H](CO)NC(=O)[C@@H](NC(=O)[C@@H](Cc1ccccc1)NC)[C@@H](C)CC)C(=O)N[C@H](C(=O)N[C@@H](CO)C(=O)N[C@H]1C(=O)N[C@@H](C)C(=O)N[C@@H](CCSC)C(=O)N[C@@H]([C@@H](C)CC)C(=O)O[C@H]1C)[C@@H](C)CC [Met10-teixobactin/Methibactin, Met10-teixobactin] | 1 µg/mL (≈ 0.82 µM) | 0.25 µg/mL (≈ 0.205 µM) | two times higher activities than teixobactin |  | 
CCCC[C@@H]1NC(=O)[C@H](C)NC(=O)[C@H](NC(=O)[C@H](CO)NC(=O)[C@@H](NC(=O)[C@H](NC(=O)[C@@H](CCC(N)=O)NC(=O)[C@H](CO)NC(=O)[C@@H](NC(=O)[C@@H](Cc2ccccc2)NC)[C@@H](C)CC)[C@H](C)CC)[C@@H](C)CC)[C@H](C)OC(=O)[C@H]([C@@H](C)CC)NC1=O [Nle10-teixobactin] | 2 µg/mL (≈ 1.66 µM) | 0.5 µg/mL (≈ 0.416 µM) | comparable activities as teixobactin |  | 
CCC[C@@H]1NC(=O)[C@H](C)NC(=O)[C@H](NC(=O)[C@H](CO)NC(=O)[C@@H](NC(=O)[C@H](NC(=O)[C@@H](CCC(N)=O)NC(=O)[C@H](CO)NC(=O)[C@@H](NC(=O)[C@@H](Cc2ccccc2)NC)[C@@H](C)CC)[C@@H](C)CC)[C@@H](C)CC)[C@H](C)OC(=O)[C@H]([C@@H](C)CC)NC1=O [Nva10-teixobactin] | 1 µg/mL (≈ 0.842 µM) | 0.25 µg/mL (≈ 0.211 µM) | two times higher activities than teixobactin |  | 
CC[C@H](C)[C@H](NC(=O)[C@@H](Cc1ccccc1)NC)C(=O)N[C@@H](CO)C(=O)N[C@H](CCC(N)=O)C(=O)N[C@@H](C(=O)N[C@H](C(=O)N[C@@H](CO)C(=O)N[C@H]1C(=O)N[C@@H](C)C(=O)N[C@@H](Cc2ccc(F)cc2)C(=O)N[C@@H]([C@@H](C)CC)C(=O)O[C@H]1C)[C@@H](C)CC)[C@@H](C)CC [Phe(4-F)10-teixobactin/Flurobactin, Phe(4-F)10-teixobactin] | 1 µg/mL (≈ 0.798 µM) | 0.5 µg/mL (≈ 0.399 µM) | two times higher activities than teixobactin |  | 

Source: patent publication US20210060121A1, “NOVEL ANTIBIOTICS AND METHODS OF USING THEM” (priority 2018, published 2021)
